Where two headings read alike, the source gives them in different places. Each block holds one molecule with its values, some of them ahead of it.
Assays:
MCF7 cells = assay: Inhibitory activity of payloads on cell proliferation (Cell titer glo); format: cell-based; settings: for EC50: 4 days culture
Method: (§1) The cells were incubated in an incubator at 37° C. overnight. The payload to be tested was dissolved in DMSO, and the resulting solution was aliquoted and cryopreserved at −80° C. The next day, the payload to be tested was subjected to 4-fold dilution to a maximum concentration of 10000 nM for 10 points using the respective complete medium. 100 µL of the diluted drug was added to the cell culture wells (2 replicates per well). After the cells were cultured at 37° C. for 4 days, 50 μL of Cell titer glo substrate was added to each well. After the cells were incubated for 5 min, the fluorescence values were measured.

N87 cells = assay: as above; format: cell-based; settings: for EC50: 4 days culture
Method: as §1

NUGC4 cells = assay: as above; format: cell-based; settings: for EC50: 4 days culture
Method: as §1

IKZF1/3 = settings: clinical results shown at AACR April 2022; cited from earlier work
[1] = target: T1, B7H3 on tumor cells (MCF-7, A549, PC-3) (human) (UniProt Q5ZPR3); assay: flow cytometry on A549 tumor cells
T1 sequence (looked up): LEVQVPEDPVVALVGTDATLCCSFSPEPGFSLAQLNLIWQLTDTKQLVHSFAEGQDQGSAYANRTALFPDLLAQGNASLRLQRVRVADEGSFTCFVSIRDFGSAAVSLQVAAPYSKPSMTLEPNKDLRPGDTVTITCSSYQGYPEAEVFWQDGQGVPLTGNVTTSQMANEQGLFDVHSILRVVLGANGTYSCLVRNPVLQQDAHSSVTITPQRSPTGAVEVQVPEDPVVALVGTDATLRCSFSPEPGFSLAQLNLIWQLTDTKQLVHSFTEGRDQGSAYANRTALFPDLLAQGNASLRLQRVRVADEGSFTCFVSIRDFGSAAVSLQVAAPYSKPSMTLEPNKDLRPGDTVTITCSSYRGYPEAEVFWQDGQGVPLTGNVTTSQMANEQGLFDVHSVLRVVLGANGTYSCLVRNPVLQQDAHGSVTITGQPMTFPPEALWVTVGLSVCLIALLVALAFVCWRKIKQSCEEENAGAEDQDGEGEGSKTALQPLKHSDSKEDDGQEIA

[2] = target: T1, B7H3 on tumor cells (MCF-7, A549, PC-3) (human); assay: flow cytometry on A549 tumor cells; remark: listed apart in the source
[3] = target: T1, B7H3 on tumor cells (MCF-7, A549, PC-3) (human); assay: flow cytometry on PC-3 tumor cells
[4] = target: T1, B7H3 on tumor cells (MCF-7, A549, PC-3) (human); assay: flow cytometry on MCF-7 tumor cells
[5] = target: T1, B7H3 on tumor cells (MCF-7, A549, PC-3) (human); assay: flow cytometry on MCF-7 tumor cells; remark: listed apart in the source
[6] = target: T2, human B7H3-4IgG-his (human) (UniProt Q5ZPR3); assay: ELISA, coated human B7H3-4IgG-his, anti-human Fc-HRP detection
T2 sequence: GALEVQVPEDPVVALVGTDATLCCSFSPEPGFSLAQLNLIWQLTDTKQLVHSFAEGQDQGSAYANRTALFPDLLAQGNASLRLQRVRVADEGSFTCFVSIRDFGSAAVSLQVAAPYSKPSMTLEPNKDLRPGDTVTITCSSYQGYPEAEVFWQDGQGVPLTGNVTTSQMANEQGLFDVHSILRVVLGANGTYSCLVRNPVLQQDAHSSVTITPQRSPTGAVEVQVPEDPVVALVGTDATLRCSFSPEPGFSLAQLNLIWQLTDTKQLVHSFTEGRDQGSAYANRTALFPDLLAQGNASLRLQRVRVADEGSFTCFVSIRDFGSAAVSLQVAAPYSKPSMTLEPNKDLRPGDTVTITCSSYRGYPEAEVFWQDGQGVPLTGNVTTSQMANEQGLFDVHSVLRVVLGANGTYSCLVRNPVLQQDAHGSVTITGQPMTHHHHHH

[7] = target: T2, human B7H3-4IgG-his (human); assay: as above; remark: listed apart in the source
[8] = target: monkey B7H3-4IgG-his (monkey); assay: ELISA, coated monkey B7H3-4IgG-his, anti-human Fc-HRP detection
[9] = target: monkey B7H3-4IgG-his (monkey); assay: as above; remark: listed apart in the source

Molecule: CN(CCCc1ccc(NC(=O)NCc2ccc3c(c2)C(=O)N(C2CCC(=O)NC2=O)C3=O)cc1Cl)C(=O)CO (stereo not drawn) [PL-3, N-(3-(2-chloro-4-(3-((2-(2,6-dioxopiperidin-3-yl)-1,3-dioxoisoindol-5-yl)methyl)ureido)phenyl)propyl)-2-hydroxy-N-methylacetamide]
EC50 (N87 cells; 96 h): 851 nM

Molecule: CN(CCOCCc1ccc(NC(=O)NCc2ccc3c(c2)CN(C2CCC(=O)NC2=O)C3=O)cc1Cl)C(=O)CO (stereo not drawn) [PL-4, N-(2-chloro-4-(3-(2-(2,6-dioxopiperidin-3-yl)-1-oxoisoindolin-5-methyl)ureido)phenethoxy)ethyl-2-hydroxy-N-methylacetamide]
inhibitory activity on the proliferation of MCF7 cells (in words) (MCF7 cells): significantly superior to that of control compound 1
EC50 (MCF7 cells): 44.7 nM
inhibitory activity on the proliferation of N87 cells (in words) (N87 cells): significantly superior to that of control compound 1
EC50 (N87 cells): 36.1 nM
inhibitory activity on the proliferation of NUGC4 cells (in words) (NUGC4 cells): significantly superior to that of control compound 1
EC50 (NUGC4 cells): 43.2 nM

Molecule: O=C1CC[C@H](N2C(=O)c3cccc4c(Cc5ccc(CN6CCOCC6)cc5)ccc2c34)C(=O)N1 [CFT7455]
dose-limiting toxicity in the clinic (IKZF1/3): decreased neutrophil was dose-limiting

Molecule: CN(CCCc1ccc(C(F)(F)C(=O)NCc2ccc3c(c2)CN(C2CCC(=O)NC2=O)C3=O)cc1Cl)C(=O)CO (stereo not drawn) [PL-2]
EC50 (N87 cells; 96 h): 193 nM

The next lines start with results.

EC50 (MCF7 cells; Homo sapiens, MCF7, 96 h): 228 nM
Molecule: CN(CCCc1ccc(NC(=O)NCc2ccc3c(c2)CN(C2CCC(=O)NC2=O)C3=O)cc1)C(=O)CO (stereo not drawn) [PL-5, N-(3-(4-(3-(2-(2,6-dioxopiperidin-3-yl)-1-oxoisoindolin-5-methyl)ureido)phenyl)propyl)-2-hydroxy-N-methylacetamide]
EC50 (N87 cells; 96 h): 1590 nM
EC50 (NUGC4 cells; Homo sapiens, NUGC-4, 96 h): 502 nM

EC50 (MCF7 cells; Homo sapiens, MCF7, 96 h): 983 nM
Molecule: CNCCOCCc1ccc(NC(=O)NCc2ccc3c(c2)CN(C2CCC(=O)NC2=O)C3=O)cc1Cl (stereo not drawn) [Control compound 1]
EC50 (N87 cells; 96 h): 572 nM
EC50 (NUGC4 cells; Homo sapiens, NUGC-4, 96 h): 345 nM

EC50 (MCF7 cells; Homo sapiens, MCF7, 96 h): 62.1 nM
Molecule: CN(CCCc1ccc(NC(=O)NCc2ccc3c(c2)CN(C2CCC(=O)NC2=O)C3=O)cc1Cl)C(=O)CO (stereo not drawn) [PL-1, N-(3-(2-chloro-4-(3-((2-(2,6-dioxopiperidin-3-yl)-1-oxoisoindolin-5-yl)methyl)ureido)phenyl)propyl)-2-hydroxy-N-methylacetamide]
inhibitory activity on the proliferation of MCF7 cells (in words) (MCF7 cells): significantly superior to that of control compound 1
inhibitory activity on the proliferation of N87 cells (in words) (N87 cells): significantly superior to that of control compound 1
EC50 (N87 cells; 96 h): 14.3 nM

EC50 [1]: 1.86 nM
Maximum MFI [1]: 8270
EC50 [2]: 1.05 nM
Maximum MFI [2]: 48000
EC50 [3]: 0.618 nM
Maximum MFI [3]: 6440
EC50 [4]: 1.71 nM
Maximum MFI [4]: 84000
EC50 [5]: 1.36 nM
Maximum MFI [5]: 63200
EC50 [6]: 0.048 nM
EC50 [7]: 0.0519 nM
EC50 [8]: 0.167 nM
EC50 [9]: 3.92 nM
B1: B7H3-C1 antibody (antibody, INN chains, looked up, V domains shown)
VH: QVQLVQSGAEVKKPGSSVKVSCKASGYTFTNYVMHWVRQAPGQGLEWMGYINPYNDDVKYNEKFKGRVTITADESTSTAYMELSSLRSEDTAVYYCARWGYYGSPLYYFDYWGQGTLVTVSS
VL: EIVLTQSPATLSLSPGERATLSCRASSRLIYMHWYQQKPGQAPRPLIYATSNLASGIPARFSGSGSGTDFTLTISSLEPEDFAVYYCQQWNSNPPTFGQGTKVEIK
